The source of these data is patent publication US4654368A, “Tri-organotin silatrane derivatives and pesticidal compositions, fungicides or antifouling agents comprising said compounds as active ingredients” (Nitto Kasei Co., Ltd., priority 1984, dated 1987).

Each structure is given as a SMILES string. A value given as a limit tells only on which side of the number the result lay.

In data set [1] the test system is marine animals and plants. Nature of the data set: Test on antifouling effects on marine animals and plants in the sea. To be noted: antifouling paint on vinyl chloride plate, Owase Bay. It is filed as in vivo. As to the method: A ship bottom antifouling paint was prepared by adding 24 g of Rosin WW, 12 g of a vinyl copolymer, 4 g of tricresyl phosphate, 10 g of bentonite, 20 g of baryta, 20 g of red iron oxide, 35 g of xylene and 35 g of methyl isobutyl ketone to 40 g of each of compounds Nos. 2, 8, 14, 17, 20 and 32 of the invention and vigorously stirring the mixture at room temperature for 1 hour. The paint was coated on both surfaces of a rigid vinyl chloride resin plate, 17×9×0.3 cm in size, to a dry thickness of about 200 microns. The coated plate was submerged in the sea in Owase Bay, Mie Prefecture, Japan for 12 months, and its fouled state was regularly observed.
The symbols in the table show the following.

A further data set deals with Plasmopara viticola. Nature of the data set: Test on fungicidal effect on downy mildew of grape. The format is in vivo. To be noted: sprayed on grape seedlings. From the text: Sandy soil was filled in plastic pots, and seeds of grape (variety: Neomuscat) were sown, and grown for about 1 month in a greenhouse to obtain young seedlings of grape in the 2-3 leaf stage. A water dilution of an emulsifiable concentrate of a wettable powder of each of the test compounds was sprayed onto the leaves of these seedlings so that the chemical adhered fully to the surfaces of the leaves. After drying the chemical in air, a suspension of conidospores of a […] pathogen of grape (Plasmopara viticola) was inoculated in the seedling by spraying. The seedlings were placed for 2 days in a high humidity condition at 23° C., and subsequently cultivated for 14 days in a greenhouse kept at 20° to 25° C. to cause onset of the disease. Thereafter, the state of the disease was observed.
The degree of disease was calculated by the following method. The examined leaves were classified by indices of 0, 0.5, 1, 2 and 4 according to the degrees of appearance of lesions, and the degree of disease was calculated from the following equation.
0: No fungus colony or lesion was noted on the surface of the leaves.
The control index was calculated from the following equation. [formula]

A further data set concerns Culex pipiens. Nature of the data set: Test on insecticidal effect on Culex pipiens. It is filed as in vivo. To be noted: 3.5 ppm, wettable powder of Formulation Example 5 (contains Fenitrothion); for Death rate: final-instar larvae, next day, 1440 min; for Emergence inhibition rate: when all larvae in non-treated area emerged. As to the method:
A wettable powder of each of compounds Nos. 2, 7, 8, 11, 13, 14, 17, 18 and 31 obtained in accordance with Formulation Example 5 was diluted with water to 3.5 ppm. One hundred milliliters of the dilution was put in each of 180 ml. polyethylene cups and 20 final-instar larvae of Culex pipiens were released into the cup. On the next day, the larvae were examined for mortality.
Thereafter, feeds were added to the test areas, and when all larvae n the non-treated area emerged, the emergence inhibition rate was examined.
The death rate and the emergence inhibition rate were rated by three grades as follows: […]

Data set [2] has as its system tobacco cutworms (Prodenia litura Fabrficius). Nature of the data set: Test on insecticidal efficacy on tobacco cutworms. The format is in vivo. As to conditions: 500 ppm in artificial feed, 4th-instar larvae, 6 days; wettable powder of Formulation Example 5 (contains Fenitrothion). As to the method:
A wettable powder of each of compounds Nos. 3, 7, 8, 9, 11, 12, 13, 14, 17, 18 and 31 of the invention obtained in accordance with Formulation Example 5 was diluted with water to 200 times (corresponding to a concentration of 500 ppm). Two milliliters of the dilution was impregnated in 13 g of an artificial feed for tobacco cutworms, and the feed was put in a polyethylene cup having a diameter of 11 cm. Ten 4th-instar larvae of tobacco cutworms were released into the cup, and examined for mortality 6 days later. The above experiment was carried out through two replicates.

Data set [3] deals with carmine mites (Tetranychus telarius L.). As to the kind of experiment: Miticidal effect on carmine mites. It is filed as in vivo. Also on record: key: -: Hardly any injury was observed.; +: Some injury was observed.; ++: The same injury as in the non-treated area was noted. As to conditions: 500 ppm active ingredient, spray plus soil, kidney beans, 8 days later. The protocol:
Female imagoes of carmine mites were caused to live at a rate of 10 per leaf on bineless kidney beans (in the primary leaf stage) in pots 7 days after sowing, and kept in a constant temperature chamber at 25° C. Six days later, a chemical obtained by diluting a wettable powder of each of compounds Nos. 4-6, 9-13, 15, 16, 21, 22, 25, 28-30, 33, 34, 36, 37 and 38 with water to an active ingredient concentration of 500 ppm was sprayed at a rate of 10 ml per pot, and at the same time, 2 ml of the chemical was poured into the soil. Eight days later, injuries to the plants by the mites were examined.
The degree of injury is shown by -, + and ++ as follows: […]

The subject of data set [4] is Caetomium globosum ATCC 6205. As to the kind of experiment: Test on fungicidal effect on fungi (agar medium diluting method). As to conditions: PDA, 27° C., cultivation period 3 days (compound 18: 4 days). The format is cell-based. The protocol: (§1) By an agar medium diluting method, the fungicidal activities of compounds Nos. 12, 17, 18, 23, 24, 26, 27 and 32 of the invention on fungi doing harm to industrial products and materials were examined.
(§2) A hypha piece, 5 mm in diameter, of each of the fungi indicated in Table 3 was inoculated in a potato dextrose agar medium (PDA) containing each of the above compounds, and cultivated at 27° C. After the lapse of a predetermined period, the growth state of the fungus was observed, and the minimum inhibitory concentration of the compound was determined.

Data set [5] relates to Cladosporium herbarum TAMF 517. The data set is described as above. The format is cell-based. As to conditions: PDA, 27° C., cultivation period 4 days. The protocol:
as §1, §2

The test system of data set [6] is Aspergillus niger ATCC 6275. The description is as above. The format is cell-based. As to conditions: PDA, 27° C., cultivation period 4 days. The protocol:
as §1, §2

The subject of data set [7] is Penicillium citrinum ATCC 9849. Described as above. It is filed as cell-based. To be noted: PDA, 27° C., cultivation period 4 days. As to the method:
as §1, §2

Take `CCC[CH2][Sn]([CH2]CCC)([CH2]CCC)[S]CC[Si]12OC(C)CN(CC(C)O1)CC(C)O2` (stereo not shown) [compound 8]: in [1], the “Fouled state, period of submerging 4 months” value is listed as “.circle”; the “Fouled state, period of submerging 8 months” value is listed as “.circle”; the “Fouled state, period of submerging 12 months” value was “.circle”. Besides, in the data set on Plasmopara viticola (12.5 ppm active ingredient), the Control index is recorded as 94%. This compound also gave a Control index in the data set on Plasmopara viticola (50 ppm active ingredient) of 100%. In the data set with Plasmopara viticola (200 ppm active ingredient), the Control index was determined as 100%. In addition, in the data set with Culex pipiens, the Death rate entry was “B (less than 90% to 10%)” and the Emergence inhibition rate result is reported as “A (90% or higher)”. The same compound had a Death rate in data set [2] of 100%.

For `CCC[CH2][Sn]([CH2]CCC)([CH2]CCC)[S]CCC[Si]12OC(C)CN(CC(C)O1)CC(C)O2` (stereo not shown) [compound 12], in [3], the Degree of injury entry is on record as “-”. Moreover, the Control index with Plasmopara viticola (12.5 ppm active ingredient), in the data set with Plasmopara viticola (50 ppm active ingredient) and with Plasmopara viticola (200 ppm active ingredient) was 100% each time. Also, the Minimum inhibitory concentration in data set [4], in data set [5], in [6] and in [7] was under 12.5 ppm throughout. Also, in [2], the Death rate was found to be 100%.

Consider `CCC[CH2][Sn]([CH2]CCC)([CH2]CCC)[S]CCC[Si]12OCCN(CCO1)CCO2` [compound 14], for which, in [1], the “Fouled state, period of submerging 4 months” value is “.circle”; the “Fouled state, period of submerging 8 months” value is “.circle”; the “Fouled state, period of submerging 12 months” value is given as “.circle”. In addition, in the data set on Culex pipiens, the Death rate result was “A (90% or higher)” and the Emergence inhibition rate result is given as “A (90% or higher)”. Besides, in [2], the Death rate was found to be 100%.

Regarding `CC[CH2][Sn]([CH2]CC)([CH2]CC)[S]CCC[Si]12OCCN(CCO1)CCO2` [compound 17], the “Fouled state, period of submerging 4 months” value in [1] is recorded as “.circle”. The “Fouled state, period of submerging 8 months” value in data set [1] was “.circle”. Also, the “Fouled state, period of submerging 12 months” value in data set [1] is “.circle”. For the same compound, the Minimum inhibitory concentration in data set [4] was under 2.5 ppm; in [5], under 12.5 ppm; in [6] it was under 2.5 ppm; in data set [7] it was under 2.5 ppm. Further, the figures for the Death rate entry (in the data set on Culex pipiens; in [2]) were “C (less than 10%)” and 100%, respectively. The Emergence inhibition rate result in the data set on Culex pipiens is reported as “A (90% or higher)”.

For the compound `CC[CH2][Sn]([CH2]CC)([CH2]CC)[S]CCC[Si]12OC(C)CN(CC(C)O1)CC(C)O2` (stereo not shown) [compound 18], the Minimum inhibitory concentration is on record as under 12.5 ppm in [4], under 12.5 ppm in data set [5], under 2.5 ppm in data set [6] and under 12.5 ppm in data set [7]. Besides, the Death rate entry in the data set on Culex pipiens is reported as “B (less than 90% to 10%)”; in data set [2], 100%. For the same compound, the Emergence inhibition rate result in the data set on Culex pipiens is “A (90% or higher)”.

`CC[CH2][Sn]([CH2]CC)([CH2]CC)[S]CCC[Si]12OCCN(CC(CC)O1)CC(CC)O2` (stereo not shown) [compound 23]: the Minimum inhibitory concentration in [4], in data set [5], in [6] and in [7] was under 2.5 ppm in each case.

As to `CCC[CH2][Sn]([CH2]CCC)([CH2]CCC)[S]CCC[Si]12OCCN(CCO1)CC(C)O2` (stereo not shown) [compound 24], the Minimum inhibitory concentration in data set [4], in data set [5], in data set [6] and in data set [7] was under 12.5 ppm throughout.

With `CC(C)[CH2][Sn]([CH2]C(C)C)([CH2]C(C)C)[S]CCC[Si]12OCCN(CCO1)CCO2` [compound 26], the Minimum inhibitory concentration in data set [4], in data set [5], in [6] and in data set [7] was under 12.5 ppm in each case.

`CC(C)[CH2][Sn]([CH2]C(C)C)([CH2]C(C)C)[S]CCC[Si]12OC(C)CN(CC(C)O1)CC(C)O2` (stereo not shown) [compound 27]: the Minimum inhibitory concentration in data set [4], in [5], in [6] and in data set [7] was under 12.5 ppm in each case.

Take `CCC1CN2CC(C)O[Si](CCC[S][Sn]([c]3ccccc3)([c]3ccccc3)[c]3ccccc3)(OC(C)C2)O1` (stereo not shown) [compound 32]: the “Fouled state, period of submerging 4 months” value in data set [1] was “.circle”. The “Fouled state, period of submerging 8 months” value in data set [1] is listed as “.circle”. Also, the “Fouled state, period of submerging 12 months” value in data set [1] is listed as “.circle”. For the same compound, the Minimum inhibitory concentration in data set [4], in data set [5], in data set [6] and in [7] was under 12.5 ppm throughout.
